In one test the target is GSK3α (Homo sapiens, UniProt P49840). In words: radioactive […]-ATP in vitro kinase assay, 10-dose IC50, […] ATP. Type of test: biochemical.
In a further test the target is GSK3β (Homo sapiens, UniProt P49841). Described as above. The format is biochemical.

Usually IC50 stands for the concentration at which inhibition is half-maximal.

Sequence of GSK3β (P49841 whole entry): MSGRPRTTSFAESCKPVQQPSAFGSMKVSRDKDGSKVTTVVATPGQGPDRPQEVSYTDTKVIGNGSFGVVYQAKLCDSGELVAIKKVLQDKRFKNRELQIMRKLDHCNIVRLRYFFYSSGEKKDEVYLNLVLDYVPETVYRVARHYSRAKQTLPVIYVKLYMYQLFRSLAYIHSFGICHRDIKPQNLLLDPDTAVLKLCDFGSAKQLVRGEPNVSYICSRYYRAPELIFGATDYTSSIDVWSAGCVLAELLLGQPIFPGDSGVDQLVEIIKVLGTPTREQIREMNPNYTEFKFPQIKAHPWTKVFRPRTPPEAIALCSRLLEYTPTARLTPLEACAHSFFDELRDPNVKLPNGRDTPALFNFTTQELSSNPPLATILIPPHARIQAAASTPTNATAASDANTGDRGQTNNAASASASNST
Sequence of GSK3α (P49840 2-483): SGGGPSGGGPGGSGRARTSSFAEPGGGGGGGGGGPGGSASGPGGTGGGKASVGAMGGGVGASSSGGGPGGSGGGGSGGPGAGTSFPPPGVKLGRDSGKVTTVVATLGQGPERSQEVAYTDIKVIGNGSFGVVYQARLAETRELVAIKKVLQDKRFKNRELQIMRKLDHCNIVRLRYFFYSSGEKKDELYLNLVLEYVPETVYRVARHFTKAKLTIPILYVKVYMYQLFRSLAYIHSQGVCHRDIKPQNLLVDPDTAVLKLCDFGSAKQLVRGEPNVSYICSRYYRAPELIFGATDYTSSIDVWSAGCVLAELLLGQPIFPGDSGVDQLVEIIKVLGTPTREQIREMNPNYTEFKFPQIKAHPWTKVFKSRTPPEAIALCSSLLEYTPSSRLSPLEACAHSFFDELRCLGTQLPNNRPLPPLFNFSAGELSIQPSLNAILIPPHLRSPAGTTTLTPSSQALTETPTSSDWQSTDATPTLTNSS

For GS87, the IC50 turned out to be 415 nM at GSK3α and 521 nM on GSK3β.

The values are drawn from PMC4936967 (Molecular cancer therapeutics, 2016).
